US11319285B2, “N-acylated methionine sulfoxides as food flavouring compounds” (Givaudan S.A., priority 2015, dated 2022)

Legend:
[1] = Expert taster comparison in a cheese sauce; settings: 0.5 ppm in Maggie Saus Base with 0.05 g ethanol
Experimental: Samples were evaluated by expert tasters. Tasters were asked to describe the samples focusing on authentic taste, mouthfeel, fullness, salty-ness, salivation, umami, sweetness, juiciness, richness, long lastingness and fattiness.
Comparison in a Cheese Sauce
Base is a Maggie Saus Base with 0.05 g ethanol

[2] = Expert taster comparison in a cheese onion crisp; settings: 10 ppb in crisp with proprietary cheese onion powder flavoring @ 6%
Experimental: (§1) Samples were evaluated by expert tasters. Tasters were asked to describe the samples focusing on authentic taste, mouthfeel, fullness, salty-ness, salivation, umami, sweetness, juiciness, richness, long lastingness and fattiness
Comparison in a Cheese Onion Crisp
Base is a crisp with proprietary cheese onion powder flavoring @ 6%

[3] = Expert taster comparison in UNOX 'Franse uiensoep' onion soup; settings: 10 ppb in UNOX 'Franse uiensoep'
Experimental: as §1
Base is UNOX ‘Franse uiensoep’

[4] = Expert taster comparison in Campbell's French onion soup; settings: 10 ppb in Campbell's French onion soup
Experimental: as §1
Base is Campbell's® French onion soup

SMILES | taste description versus base [1] | taste description versus base [2] | taste description versus base [3] | taste description versus base [4]
CCCCCCCC/C=C\CCCCCCCC(=O)N[C@H](C[S+](C)[O-])C(=O)O (stereo partly drawn) [(2S)-3-(methylsulfinyl)-2-oleamidopropanoic acid] | salt/umami/fullness/cheesiness level enhanced | – | – | –
CCCCCCCC/C=C\CCCCCCCC(=O)N[C@@H](CC[S+](C)[O-])C(=O)O (stereo partly drawn) [Met-SO C18:1, (2S)-4-(methylsulfinyl)-2-oleamidobutanoic acid] | – | salt/taste level enhanced; onion character more fried | slightly stronger in salt; onion character increased | slightly stronger in salt; onion character slightly enhanced
